This passage reports activity change, negative = inhibition and AC50 results from PubChem BioAssay AID623904 (Broad Institute, 2012).

Structures are written as SMILES. “And” between values parts separate entries of the source, which are not always exact repeats. Equal values may be shown once. The source made the active and inactive calls.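 The calls were made as follows: active = growth inhibition with an AC50 at or below twice the top valid tested dose; inconclusive = flat curve at 30 to 70% inhibition, or poor fit; inactive = the rest, including growth increase.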

Test system in one assay: not listed separately
The experiment in a line: C. glabrata growth inhibition on glucose, dose response, glucose medium, OD600, powder samples, set 2 (AID 623904). To be noted: Candida glabrata growth, glucose medium, OD600, 48 h; at 6 µM (top of the series).
Consider `CCOC(=O)N1C(=O)C2(CCCCC2)N(c2ccc(C(C)(C)C)cc2)C1=S`, for which the activity change, negative = inhibition is -18.2% (inactive).

Turning to `O=C1NC(=S)N(c2ccc(F)cc2)C12CCCCC2`, the activity change, negative = inhibition is 11% (inactive).

Take `CCOC(=O)N1C(=O)N(c2ccc(C)cc2)C2(CCCCC2)C1=O`: the activity change, negative = inhibition was -17.3% (inactive).

As for `Cc1ccc(N2CC(=O)NC2=S)cc1`, the activity change, negative = inhibition is 2.6% (inactive).

As for `CCCCN1C(=O)C2(CCCCC2)N(c2ccc(C)cc2)C1=S`, the activity change, negative = inhibition was 5.19% (inactive).

`O=C1NC(=S)N(c2ccccc2)C12CCCCC2`: the activity change, negative = inhibition is 5.48% (inactive).

In the case of `Cc1ccc(N2C(=S)N(C)C(=O)C23CCCCC3)cc1`, the activity change, negative = inhibition is 2.67% (inactive) and 7.65% (inactive).

In the case of `CCCCN1C(=O)N(c2ccc(C)cc2)C2(CCCCC2)C1=S`, the activity change, negative = inhibition was -6.75% (inactive).

Regarding `Cc1ccc(N2C(=S)N(C(=O)Oc3ccccc3)C(=O)C23CCCCC3)cc1`, the activity change, negative = inhibition was 2.19% (inactive).

Turning to `Cc1ccc(N2C(=S)NC(=O)C2(C)C)cc1`, the activity change, negative = inhibition is 46.6% (inactive).

On to `CCOC(=O)N1C(=O)C(C)(C)N(c2ccc(C)cc2)C1=S`, for which the activity change, negative = inhibition is -7.97% (inactive).

Take `CCOC(=O)N1C(=O)C2(CCCCC2)N(c2ccc(-c3ccccc3)cc2)C1=S`: the activity change, negative = inhibition was -30.1% (inactive).

As to `O=C1NC(=S)NC12CCCCC2`, the activity change, negative = inhibition was -24.5% (inactive).

For `Cc1ccc(N2C(=S)NC(=O)C23CCCCC3)cc1`, the activity change, negative = inhibition was -5.97% (inactive).

`Cc1ccc(N2C(=S)NC(=O)C23CCCC3)cc1`: the activity change, negative = inhibition is -25.3% (inactive).

Turning to `Cc1ccc(N2CC(=O)NC2=O)cc1`, the activity change, negative = inhibition is 9.85% (inactive).

Turning to `Cc1ccc(N2C(=S)NC(=O)C23CCC3)cc1`, the activity change, negative = inhibition is 9.11% (inactive).

`Cc1ccc(N2C(=S)N(C(=O)OCc3ccccc3)C(=O)C23CCCCC3)cc1`: the activity change, negative = inhibition is 5.73% (inactive).

Consider `CC(C)N1C(=S)NC(=O)C12CCCCC2`, for which the activity change, negative = inhibition was -10.3% (inactive).

`Cc1ccc(N2C(=S)NC(=O)C23CCOCC3)cc1`: the activity change, negative = inhibition is -7.64% (inactive).

With `CCCCN1C(=O)N(c2ccc(C)cc2)C2(CCCCC2)C1=O`, the activity change, negative = inhibition was -27.1% (inactive).

As for `CCOC(=O)N1C(=O)C2(CCCCC2)N(C(C)C)C1=S`, the activity change, negative = inhibition was 10.8% (inactive).

The test system of the next assay is Candida glabrata growth, glucose medium, OD600, 48 h. The assay is described as above.
Settings: not given
In the case of `CCOC(=O)N1C(=O)C2(CCCCC2)N(c2ccc(C#N)cc2)C1=S`, the AC50 was 3.29 µM.

As to `CCOC(=O)N1C(=O)C2(CCCCC2)N(c2ccc(C)cc2)C1=S`, the AC50 is 1.85 µM and 2.09 µM.

Take `CCOC(=O)N1C(=O)C2(CCCC2)N(c2ccc(C)cc2)C1=S`: the AC50 is > 12 µM (inactive).

Regarding `CCOC(=O)N1C(=S)N(c2ccc(C)cc2)C2(CCCCC2)C1=NCc1ccccc1`, the AC50 was > 12 µM (inactive).

As to `CCOC(=O)N1C(=O)C2(CCCCC2)N(c2ccccc2)C1=S`, the AC50 was 2.04 µM.

For the molecule `Cc1ccc(N2C(=O)NC(=O)C23CCCCC3)cc1`, the AC50 was > 12 µM (inactive).

For `CCOC(=O)N1C(=O)C2(CCCCC2)N(c2ccc(F)cc2)C1=S`, the AC50 is 2.34 µM.

For the molecule `Cc1ccc(N2C(=O)C(=O)NC2=S)cc1`, the AC50 was > 12 µM (inactive).

As to `CCOC(=O)N1C(=O)C2(CCOCC2)N(c2ccc(C)cc2)C1=S`, the AC50 was > 12 µM (inactive).

As to `CCOC(=O)N1C(=S)NC(=O)C12CCCCC2`, the AC50 was > 12 µM (inactive).

As to `COC(=O)N1C(=O)C2(CCCCC2)N(c2ccc(C)cc2)C1=S`, the AC50 is 5.93 µM.

Take `Cc1ccc(N2C(=S)N(S(C)(=O)=O)C(=O)C23CCCCC3)cc1`: the AC50 is > 12 µM (inactive).

As for `Cc1ccc(N2C(=O)C3(CCCCC3)NC2=S)cc1`, the AC50 was > 12 µM (inactive).

With `CCOC(=O)N1C(=O)C2(CCCCC2)NC1=S`, the AC50 is > 12 µM (inactive).

As for `CCOC(=O)N1C(=O)C2(CCCCC2)N(c2ccc(C(F)(F)F)cc2)C1=S`, the AC50 was 4.15 µM.

For the molecule `CCOC(=O)N1C(=O)C2(CCC2)N(c2ccc(C)cc2)C1=S`, the AC50 is > 12 µM (inactive).

Regarding `CCOC(=O)N1C(=S)N(c2ccc(C)cc2)C(=O)C12CCCCC2`, the AC50 was > 12 µM (inactive).

As to `CCOC(=O)N1C(=O)C2(CCCCC2)N(c2cccc(C)c2)C1=S`, the AC50 was 2.34 µM.

For `CC1/C=C/C=C\C=C\C=C\C=C\C=C\C=C\C(O[C@H]2OC(C)C(O)C(N)C2O)CC2OC(O)(CC(O)CC(O)C(O)CCC(O)CC(O)CC(=O)OC(C)C(C)C1O)CC(O)C2C(=O)O` (stereo partly drawn), the AC50 is 0.206 µM.

Take `CCCC(=O)N1C(=O)C2(CCCCC2)N(c2ccc(C)cc2)C1=S`: the AC50 was 1.48 µM.

For `Cc1ccc(N2C(=O)N(C)C(=O)C23CCCCC3)cc1`, the AC50 is > 12 µM (inactive).
